Common to all, as to experiment: inhibition of tumour cell growth, NCI panel, 48 h
The subject of assay [1] is 786-0.
The test system of assay [2] is A549.
The test system of assay [3] is BT-549.
The subject of assay [4] is CAKI-1.
Assay [5] deals with HL-60.
Assay [6] deals with K562.
The test system of assay [7] is M14.
Assay [8] deals with MDA-N.
Assay [9] relates to NCI-H226.
Assay [10] relates to OVCAR-5.
The test system of assay [11] is OVCAR-8.
Assay [12] deals with RXF 393.
Assay [13] concerns SF-268.
Assay [14] concerns SK-MEL-28.
Assay [15] deals with SK-OV-3.
For assay [16], the system named is SNB-19.
Assay [17] deals with U-251.
Assay [18] deals with UACC-257.
Assay [19] deals with T47D.

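96-well plates; 48 h exposure; 5 concentrations. Endpoints by linear interpolation between flanking doses. Not reached: highest tested concentration assigned. GI50 is the concentration that inhibits growth by half.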 Activity calls are given as the source filed them. Rule as the data show it: active = GI50 up to about 1.1 µM and inactive = higher. Bounds are passed on as bounds.

For the compound `CCc1nc2ccc(C(F)(F)F)cc2[nH]c1=O`, the GI50 in [1] was > 100 µM (inactive); in [2], > 100 µM (inactive); in assay [3], > 100 µM (inactive); in [4] it was 80.7 µM (inactive); in assay [5], > 100 µM (inactive); in [6] it was > 100 µM (inactive). In addition, the GI50 in assay [7], in assay [8], in [9], in assay [10], in assay [11] and in assay [12] was > 100 µM (inactive) throughout. For the same compound, the GI50 in assay [13], in [14], in assay [15], in assay [16], in [17] and in [18] was > 100 µM (inactive) in each case.

Consider `COc1cccc(C2CC(=O)c3cc(N4CCCC4)ccc3N2)c1` (stereo not drawn), for which the GI50 was 0.0404 µM (active) in assay [1]; 0.036 µM (active) in assay [2]; 0.0843 µM (active) in assay [3]; 0.0561 µM (active) in assay [4]; 0.0237 µM (active) in [6]; 0.0234 µM (active) in assay [7]. The GI50 in assay [8] is 0.00269 µM (active); in [9], 0.0385 µM (active); in assay [10] it was 0.0608 µM (active); in [11], 0.037 µM (active); in assay [12] it was 0.0177 µM (active); in assay [13] it was 0.0692 µM (active). Besides, the GI50 in assay [15] was 0.043 µM (active); in [16], 0.0296 µM (active); in assay [19] it was 56 µM (inactive); in assay [17] it was 0.0248 µM (active); in assay [18], 0.01 µM (active).

As for `COCCNC1CCC(=O)c2[nH]c3ccccc3c21` (stereo not drawn), the GI50 in assay [1], in assay [2], in assay [3], in [4], in assay [5] and in assay [6] was > 100 µM (inactive) each time. The GI50 in assay [7], in assay [8], in assay [9], in [10], in assay [11] and in [12] was > 100 µM (inactive) in each case. Besides, the GI50 in assay [13], in [14], in assay [16], in [17] and in assay [18] was > 100 µM (inactive) in each case.

Consider `O=C1C=CC(O)C2C1CC13SSC4(CC5C(=O)C=CC(O)C5N4C1=O)C(=O)N23` (stereo not drawn), for which the GI50 in assay [1] is 0.0396 µM (active); in assay [2], 2.52 µM (inactive); in [3] it was 1.63 µM (inactive); in [4] it was 0.155 µM (active); in assay [5], < 0.0465 µM (active); in [6] it was 0.0358 µM (active). Besides, the GI50 in assay [7] is 0.157 µM (active); in assay [9], 0.308 µM (active); in [10], 0.0634 µM (active); in assay [11], 0.0698 µM (active); in assay [12], 0.483 µM (active); in [13], 0.847 µM (active). Also, the GI50 in assay [14] is 0.302 µM (active); in [15], 2.2 µM (inactive); in assay [16] it was 1.36 µM (inactive); in assay [19], 0.499 µM (active); in [17] it was 0.234 µM (active); in assay [18] it was 0.183 µM (active).

On to `Nc1nc(NCC2(CO)CC2)cc(=O)[nH]1`, for which the GI50 in assay [1], in assay [2], in assay [3], in assay [4], in assay [5] and in [6] was > 100 µM (inactive) throughout. In addition, the GI50 in assay [7], in assay [9], in [10], in assay [11], in [12] and in assay [13] was > 100 µM (inactive) in each case. For the same compound, the GI50 in assay [14], in [15], in assay [16], in assay [19], in assay [17] and in assay [18] was > 100 µM (inactive) each time.

With `O=[N+]([O-])/C(C(Cl)=C(Cl)Cl)=C(\Nc1cccc2cccnc12)Sc1ccccc1`, the GI50 in [1] was 20 µM (inactive); in assay [2], 29.9 µM (inactive); in assay [3], 21.9 µM (inactive); in [4] it was 22 µM (inactive); in assay [6], 28.4 µM (inactive); in assay [7], 39.3 µM (inactive). The GI50 in assay [8] was 43 µM (inactive); in [9], 28.6 µM (inactive); in assay [10], 20.8 µM (inactive); in assay [13], 17.9 µM (inactive); in assay [14], 20.4 µM (inactive); in assay [15], 34.2 µM (inactive). For the same compound, the GI50 in [16] is 31.6 µM (inactive); in assay [19], 18.3 µM (inactive); in assay [17], 16.2 µM (inactive); in assay [18], 19.8 µM (inactive).

For `COc1cccc2c1C(=O)c1c(O)c3c(c(O)c1C2=O)C[C@@](O)(/C(C)=N/NC(=O)c1ccc(Cl)c(Cl)c1)C[C@@H]3OC1CC(N)C(O)C(C)O1` (stereo partly drawn), the GI50 in assay [1] was 0.191 µM (active); in assay [2], 0.186 µM (active); in assay [3], 0.505 µM (active); in assay [4], 0.0646 µM (active); in assay [5], 0.0348 µM (active); in assay [6], 0.197 µM (active). Besides, the GI50 in assay [7] is 0.148 µM (active); in assay [9] it was 0.092 µM (active); in assay [10], 0.374 µM (active); in [11], 0.292 µM (active); in [12], 1.15 µM (inactive); in assay [13] it was 0.296 µM (active). In addition, the GI50 is 0.0676 µM (active) in assay [14]; 0.44 µM (active) in [15]; 0.0792 µM (active) in assay [16]; 0.372 µM (active) in [19]; 0.0589 µM (active) in assay [17]; 0.188 µM (active) in [18].

`Cc1cccc(/C=N/NC(=S)Nc2ccc(Cl)cc2)n1`: the GI50 in assay [1] was 1.63 µM (inactive); in assay [2], 1.93 µM (inactive); in [3] it was 7.14 µM (inactive); in assay [4] it was 1.7 µM (inactive); in assay [6] it was 0.329 µM (active); in assay [7], 1.08 µM (active). In addition, the GI50 is 0.308 µM (active) in [8]; 15.7 µM (inactive) in [10]; 3.74 µM (inactive) in assay [11]; 2.61 µM (inactive) in assay [13]; 3.39 µM (inactive) in assay [14]; 1.8 µM (inactive) in [15]. Besides, the GI50 in assay [16] was 2.31 µM (inactive); in assay [19], 0.611 µM (active); in assay [17] it was 2.19 µM (inactive); in [18], 3.13 µM (inactive).

Consider `CN(C)N1C(=O)c2ccccc2NC1c1ccccc1` (stereo not drawn), for which the GI50 in [1], in [2], in assay [3], in [4], in assay [7] and in assay [8] was > 100 µM (inactive) throughout. Further, the GI50 in [9], in assay [10], in assay [11], in assay [13], in assay [14] and in [15] was > 100 µM (inactive) throughout. The GI50 in [16], in assay [19], in [17] and in assay [18] was > 100 µM (inactive) throughout.

Take `COc1ccc(C(OC(=O)[C@H](O[Si](C)(C)C(C)(C)C)[C@@H](NC(=O)c2ccccc2)c2ccccc2)c2ccc(OC)cc2)cc1`: the GI50 in assay [1] is > 100 µM (inactive); in [2], > 100 µM (inactive); in assay [3] it was > 100 µM (inactive); in [4], > 100 µM (inactive); in [6], 24.8 µM (inactive); in assay [8] it was > 100 µM (inactive). The GI50 in assay [9], in [10], in [11], in assay [12], in [13] and in [16] was > 100 µM (inactive) throughout. The GI50 in assay [19], in assay [17] and in assay [18] was > 100 µM (inactive) throughout.

In the case of `CC(O)/C=C/C1OC(=O)CC1Nc1ccc(C=O)cc1` (stereo not drawn), the GI50 in assay [1] was > 100 µM (inactive); in [2], > 100 µM (inactive); in [3] it was > 100 µM (inactive); in assay [6], 41.5 µM (inactive); in assay [7], 22.3 µM (inactive); in assay [8] it was > 100 µM (inactive). For the same compound, the GI50 in assay [9], in [10], in assay [11], in [12], in [13] and in assay [14] was > 100 µM (inactive) in each case. Also, the GI50 in assay [15] is > 100 µM (inactive); in assay [16], > 100 µM (inactive); in [19], 60.7 µM (inactive); in assay [17], 77.6 µM (inactive); in assay [18], 48.2 µM (inactive).

With `CC(CCc1nc2ccccc2s1)(c1ccc(O)cc1)c1ccc(O)cc1`, the GI50 is 15.1 µM (inactive) in assay [1]; 18.3 µM (inactive) in [2]; 19.4 µM (inactive) in [3]; 20.6 µM (inactive) in assay [4]; 15.4 µM (inactive) in [6]; 16.1 µM (inactive) in [7]. Also, the GI50 in assay [8] was 16.5 µM (inactive); in assay [9], 22.3 µM (inactive); in assay [10] it was 18.1 µM (inactive); in assay [11], 21.7 µM (inactive); in assay [12], 18 µM (inactive); in assay [13], 20 µM (inactive). Further, the GI50 in assay [14] is 19 µM (inactive); in assay [16], 17.5 µM (inactive); in assay [19], 24.8 µM (inactive); in assay [17], 14.6 µM (inactive); in assay [18] it was 15.3 µM (inactive).

The values are drawn from ChEMBL document CHEMBL1201862, “PubChem BioAssay data set” (2004).
